Data reported in US20060222599A1, “Inhalative powder formulations containing the CGRP-antagonist 1 [N2-[3,5-dibromo-N-[[4-(3,4-dihydro-2(1H)-oxoquinazolin-3-yl)-1-piperidinyl]carbonyl]-D-tyrosyl]-L-lysyl]-4-(4-pyridinyl)-piperazine” (Boehringer Ingelheim International GmbH, priority 2003, published 2006).
Read-outs that look alike come from different tables or passages of the source.

Assays:
[1] = physical stability of the amorphous micronised active substance in powder mixtures with excipients; format: physicochemical
Source text: It is known that the amorphous state of solids is thermodynamically unstable. In particular, this contributes to the fact that microparticles which have amorphous parts or are purely amorphous are metastable in their physicochemical properties. Typically, amorphous or partially amorphous pharmaceutical active substances and excipients, such as sugars, for example, recrystallise spontaneously during storage under normal conditions. The process may be accelerated by an increase in the relative humidity and possibly the temperature. In association with this recrystallisation, the particles change their surface characteristics, their particle morphology and their particle size.

[2] = systemic bioavailability after pulmonary or nasal inhalation; format: in vivo; settings: powder mixture with excipients, inhaled
[3] = hygroscopicity; format: physicochemical
[4] = specific surface area (multi point BET, nitrogen); format: physicochemical; settings: air-jet-ground, anhydrous
Source text: • Measuring method: In order to determine the particle size the powder is fed into a laser diffraction spectrometer using a dispersing unit. The median value X50 refers to the particle size below which 50% of the quantity of particles fall. The Q(5.8) value describes the percentage of particles which are less than 5.8 μm in size. • Measuring device: Laser diffraction spectrometer (HELOS), Messrs. • Sympatec • Software: WINDOX Version 3.3/REL 1 • Dispersing unit: RODOS/dispersing pressure: 3 bar • Focal length: 100 mm [measuring range: 0.9 . . . . 175 μm] • Evaluation method: HRLD (V 3.3 Rel. 1) b) Determining the Specific Surface Area: • Measuring method: The specific surface is determined by exposing the powder sample to a nitrogen atmosphere at different pressures.
Cooling the sample causes the nitrogen molecules to be condensed on the surface of the particles. The quantity of condensed nitrogen is determined by means of the drop in pressure in the system and the specific surface area of the sample is calculated by means of the surface nitrogen requirement and the weight of the sample. • Measuring device: Tri Star Multi Point BET, Messrs. Micromeritics • Heating station: VacPrep 061, Messrs. Micromeritics
Heating: approx. 12 h/40° C.

[5] = conventional formulations; cited from earlier work

Q: Which results are given for `NCCCC[C@H](NC(=O)[C@@H](Cc1cc(Br)c(O)c(Br)c1)NC(=O)N1CCC(N2Cc3ccccc3NC2=O)CC1)C(=O)N1CCN(c2ccncc2)CC1` [A, 1-[N^2-[3,5-dibromo-N-[[4-(3,4-dihydro-2(1H)-oxoquinazolin-3-yl)-1-piperidinyl]carbonyl]-D-tyrosyl]-L-lysyl]-4-(4-pyridinyl)-piperazine]?
A: amorphous form on storage (X-ray powder diffractometry) ([1]; amorphous micronised particles, shelf life of the medicament): maintained throughout the shelf life; physical stability ([1]; powder mixtures with excipients): physically stable; bioavailability by pulmonary or nasal inhalation [2]: sufficiently bioavailable; hygroscopicity [3]: hygroscopic; hygroscopicity ([3]; listed as active substance): strongly hygroscopic; specific surface area [4]: 20.2 m^2/g; oral bioavailability [5]: very limited oral bioavailability
